Molecules are shown by their SMILES. In brackets after ≈: the same amount, converted by molar mass. Where two headings read alike, the source gives them in different places. Where only a bound is given, the exact number is not on record here.

In data set [1] the test system is mongrel dogs. Briefly: Vasodilating activity in anesthetized mongrel dogs (coronary blood flow, blood pressure, heart rate after dosing into the vein). The class given is in vivo, dog (mongrel). The note with it: for Blood Pressure Duration / Blood Pressure Reduction / Coronary Blood Flow Duration / Coronary Blood Flow Increase / Heart Rate Reduction: i.v., dog; for titer relative to dipyridamol: compared with currently employed dipyridamol. The procedure: 4 male mongrel dogs, weighing 15-25 Kg, were provided as laboratory animals and were anesthesized with sodium pentobarbital (30 mg/kg i.v.). Thereafter, the left circumflex coronary artery was exposed under artificial respiration and a probe of an electromagnetic flow meter was attached. A polyethylene cannula was inserted into the left femoral artery.
Test compounds were dissolved in a small amount of dimethyl sulfoxide and diluted with a sterilized physiological saline for injection, followed by dosing it into the vein.
Coronary blood was measured by means of the electromagnetic flow meter and the blood pressure was determined from the polyethylene cannule through a pressure transducer. Also, heart rate was measured by an instantaneous pulse meter from RR intervals of an electrocardiogram. Each parameter was recorded on a polygraph. Changes of these parameters prior to and after administration of each compound were observed.
In accordance with the procedure as used with SS 12538A, the vasodilating activity of SS 12538B was determined.
In the same manner as in the case of SS 12538A, the vasodilating activity of SS 12538C was determined with the results shown in Table 5.

Data set [2] relates to Aspergillus niger ATCC 9642. Briefly: Antifungal activity (MIC), Aspergillus niger ATCC 9642. In kind it is cell-based. An excerpt:
(§1) Minimum inhibitory concentration (MIC) of the physiologically active substance SS 12538A against various microorganisms are shown in FIG. 2.
(§2) Minimum inhibitory concentration (MIC) of the physiologically active substance SS 12538B against various microorganisms are shown in Table 4 below.
(§3) Minimum inhibitory concentration (MIC) of the physiologically active substance SS 12538C against various microorganisms are shown in Table 6 below.

The test system of data set [3] is Staphylococcus aureus ATCC 6538P. The data set is described as follows: Antibacterial activity (MIC), Staphylococcus aureus ATCC 6538P. The class given is cell-based. Particulars: ATCC6538P, read-out: Minimum Inhibitory Concentration MIC.
Text: as §1, §2, §3

Data set [4] concerns Micrococcus lysodeikticus IFO 3333. Briefly: Antibacterial activity (MIC), Micrococcus lysodeikticus IFO 3333. In kind it is cell-based. The note with it: Micrococcus luteus.
Text: as §1, §2, §3

Data set [5] has as its system Candida albicans ATCC 10231. The data set is described as follows: Antifungal activity (MIC), Candida albicans ATCC 10231. The class given is cell-based.
Text: as §1, §2, §3

Data set [6] concerns Escherichia coli 0-1. Briefly: Antibacterial activity (MIC), Escherichia coli 0-1. In kind it is cell-based.
Text: as §1, §2, §3

The subject of data set [7] is Pseudomonas aeruginosa IFO 13736. Briefly: Antibacterial activity (MIC), Pseudomonas aeruginosa IFO 13736. In kind it is cell-based.
Text: as §1, §2, §3

Data set [8] has as its system Microsporum gypseum IFO 8231. The data set is described as follows: Antifungal activity (MIC), Microsporum gypseum IFO 8231. In kind it is cell-based. Particulars: Nannizzia gypsea.
Text: as §1, §2, §3

Data set [9] relates to Trichophyton mentagrophytes QM 248. The data set is described as follows: Antifungal activity (MIC), Trichophyton mentagrophytes QM 248. In kind it is cell-based.
Text: as §1, §2, §3

Data set [10] relates to Bacillus cereus IID 871. The data set is described as follows: Antibacterial activity (MIC), Bacillus cereus IID 871. The class given is cell-based.
Text: as §1, §2, §3

In data set [11] the test system is Klebsiella pneumoniae ATCC 10031. The data set is described as follows: Antibacterial activity (MIC), Klebsiella pneumoniae ATCC 10031. The class given is cell-based.
Text: as §1, §2, §3

Data set [12] deals with Saccharomyces cerevisiae ATCC 9763. Briefly: Antifungal activity (MIC), Saccharomyces cerevisiae ATCC 9763. In kind it is cell-based.
Text: as §1, §2, §3

Data set [13] in a line: Solubilities in solvents. In kind it is physicochemical. Particulars: for Solubility in organic solvents: chloroform, ethyl acetate, acetone, ethyl ether, ethanol, methanol, pyridine, benzene and dimethyl sulfoxide.
The subject of data set [14] is Staphylococcus epidermidis ATCC 12228. Briefly: Antibacterial activity (MIC), Staphylococcus epidermidis ATCC 12228. The class given is cell-based.
Text: as §1, §2, §3

Data set [15] relates to Bacillus subtilis ATCC 6633. The data set is described as follows: Antibacterial activity (MIC), Bacillus subtilis ATCC 6633. The class given is cell-based.
Text: as §1, §2, §3

The mark [16] stands for this setting: ATCC9642, Aspergillus niger ATCC 9642, read-out: Minimum Inhibitory Concentration MIC.
The mark [17] stands for this setting: Staphylococcus aureus ATCC 6538P.
The mark [18] stands for this setting: IFO3333, Micrococcus lysodeikticus IFO 3333, read-out: Minimum Inhibitory Concentration MIC.
Where [19] appears, read: ATCC10231, Candida albicans ATCC 10231, read-out: Minimum Inhibitory Concentration MIC.
Where [20] appears, read: 01, Escherichia coli 0-1, read-out: Minimum Inhibitory Concentration MIC.
The mark [21] stands for this setting: IFO13736, Pseudomonas aeruginosa IFO 13736, read-out: Minimum Inhibitory Concentration MIC.
[22] abbreviates: IFO8231, Microsporum gypseum IFO 8231, read-out: Minimum Inhibitory Concentration MIC.
Where [23] appears, read: QM248, Trichophyton mentagrophytes QM 248, read-out: Minimum Inhibitory Concentration MIC.
Where [24] appears, read: IID871, Bacillus cereus IID 871, read-out: Minimum Inhibitory Concentration MIC.
Where [25] appears, read: ATCC10031, Klebsiella pneumoniae ATCC 10031, read-out: Minimum Inhibitory Concentration MIC.
Where [26] appears, read: ATCC9763, Saccharomyces cerevisiae ATCC 9763, read-out: Minimum Inhibitory Concentration MIC.
[27] abbreviates: ATCC12228, Staphylococcus epidermidis ATCC 12228, read-out: Minimum Inhibitory Concentration MIC.
[28] abbreviates: ATCC6633, Bacillus subtilis ATCC 6633, read-out: Minimum Inhibitory Concentration MIC.

Turning to `OCCN(CCO)c1nc(N2CCCCC2)c2nc(N(CCO)CCO)nc(N3CCCCC3)c2n1` [Dipyridamol, dipyridamol, reference compound], in [1] (dose 300 μg/kg), the “Blood Pressure Duration” value worked out at 16 min, the “Blood Pressure Reduction” value amounted to 13.2%, the “Coronary Blood Flow Duration” value was found to be 20 min and the “Coronary Blood Flow Increase” value is given as 135.7%. Moreover, in data set [1] (dose 300 μg/kg), the “Heart Rate Reduction” value was found to be 0%.
Turning to `CC=C(C)C(O)C(C)C=C(C)C=CCC(C)=CCc1oc(OC)c(C)c(=O)c1C` (stereo not drawn) [SS 12538A], the MIC in data set [2] (setting [16]) is greater than 100 µg/mL; in data set [3] (setting [17]), greater than 100 µg/mL; in [4] (setting [18]), 25 µg/mL (≈ 62.4 µM); in data set [5] (setting [19]), greater than 100 µg/mL; in data set [6] (setting [20]), greater than 100 µg/mL; in data set [7] (setting [21]), greater than 100 µg/mL. Moreover, the MIC is less than 6.25 µg/mL in data set [8] (setting [22]); greater than 100 µg/mL in data set [9] (setting [23]); 12.5 µg/mL (≈ 31.2 µM) in [10] (setting [24]); greater than 100 µg/mL in data set [11] (setting [25]); greater than 100 µg/mL in data set [12] (setting [26]); less than 6.25 µg/mL in data set [14] (setting [27]). In [15] (setting [28]), the MIC was greater than 100 µg/mL. For the same compound, in data set [1], the “titer relative to dipyridamol” value is listed as “about 30 times”. Moreover, the “Blood Pressure Duration” value in data set [1] (dose 3 μg/kg) came to 7 min; in data set [1] (dose 10 μg/kg), 10 min; in [1] (dose 30 μg/kg) it was 30 min. Moreover, the “Blood Pressure Reduction” value in [1] (dose 3 μg/kg) stood at 4.9%; in data set [1] (dose 10 μg/kg), 12.6%; in data set [1] (dose 30 μg/kg), 28.7%. Further, the figures for the “Coronary Blood Flow Duration” value in data set [1] (dose 3 μg/kg), in data set [1] (dose 10 μg/kg) and in data set [1] (dose 30 μg/kg) were 10 min, 20 min and 40 min, respectively. Moreover, the “Coronary Blood Flow Increase” value is 17.1% in data set [1] (dose 3 μg/kg), 168.6% in [1] (dose 10 μg/kg) and 441.3% in data set [1] (dose 30 μg/kg). The “Heart Rate Reduction” value was found to be 2.3% in data set [1] (dose 3 μg/kg), 2.9% in data set [1] (dose 10 μg/kg) and 1.8% in data set [1] (dose 30 μg/kg). The “Solubility in organic solvents” value in [13] is reported as “Soluble”. Besides, in [13], the Solubility in water result was “sparingly soluble”.
Turning to `CC=C(C)C(O)C(C)C=C(C)C=CCC(C)=CCc1oc(OC)cc(=O)c1C` (stereo not drawn) [SS 12538B], the MIC in [2] (setting [16]) was greater than 100 µg/mL; in data set [3] (setting [17]) it was 25 µg/mL (≈ 64.7 µM); in data set [4] (setting [18]), 25 µg/mL (≈ 64.7 µM); in data set [5] (setting [19]), greater than 100 µg/mL; in data set [6] (setting [20]), greater than 100 µg/mL; in data set [7] (setting [21]) it was greater than 100 µg/mL. In addition, the MIC in data set [8] (setting [22]) was 100 µg/mL (≈ 259 µM); in [9] (setting [23]), 25 µg/mL (≈ 64.7 µM); in [10] (setting [24]), 50 µg/mL (≈ 129 µM); in [11] (setting [25]), greater than 100 µg/mL; in data set [12] (setting [26]) it was greater than 100 µg/mL; in [14] (setting [27]), 25 µg/mL (≈ 64.7 µM). Further, in [15] (setting [28]), the MIC is 50 µg/mL (≈ 129 µM). Moreover, the “titer relative to dipyridamol” value in data set [1] was “about 30 times”. Besides, the results for the “Blood Pressure Duration” value in data set [1] (dose 3 μg/kg) and in data set [1] (dose 10 μg/kg) were 6 min and 20 min, respectively. The figures for the “Blood Pressure Reduction” value in [1] (dose 3 μg/kg) and in data set [1] (dose 10 μg/kg) were 7.5% and 27.7%, respectively. In addition, the “Coronary Blood Flow Duration” value came to 10 min in data set [1] (dose 3 μg/kg) and 15 min in data set [1] (dose 10 μg/kg). The “Coronary Blood Flow Increase” value in [1] (dose 3 μg/kg) is 103.3%; in [1] (dose 10 μg/kg) it was 143.8%. In addition, the “Heart Rate Reduction” value in [1] (dose 3 μg/kg) stood at 2.0%; in [1] (dose 10 μg/kg), 13.0%. The “Solubility in organic solvents” value in [13] is recorded as “Soluble”. The Solubility in water entry in data set [13] is on record as “sparingly soluble”.
As for `CC=C(C)C(O)C(C)C=C(C)C=CCC(C)=CCc1oc(OC)c(CC)c(=O)c1C` (stereo not drawn) [SS 12538C], the MIC is greater than 100 µg/mL in data set [2] (Aspergillus niger, ATCC9642, read-out: Minimum Inhibitory Concentration MIC); 100 µg/mL (≈ 241 µM) in data set [3] (Staphylococcus aureus); 12.5 µg/mL (≈ 30.2 µM) in [4] (IFO3333, read-out: Minimum Inhibitory Concentration MIC); greater than 100 µg/mL in [5] (Candida albicans, ATCC10231, read-out: Minimum Inhibitory Concentration MIC); greater than 100 µg/mL in data set [6] (Escherichia coli, 01, read-out: Minimum Inhibitory Concentration MIC); greater than 100 µg/mL in data set [7] (Pseudomonas aeruginosa, IFO13736, read-out: Minimum Inhibitory Concentration MIC). The MIC was greater than 100 µg/mL in data set [8] (IFO8231, read-out: Minimum Inhibitory Concentration MIC); 50 µg/mL (≈ 121 µM) in data set [9] (Trichophyton mentagrophytes, QM248, read-out: Minimum Inhibitory Concentration MIC); 25 µg/mL (≈ 60.3 µM) in data set [10] (Bacillus cereus, IID871, read-out: Minimum Inhibitory Concentration MIC); greater than 100 µg/mL in data set [11] (Klebsiella pneumoniae, ATCC10031, read-out: Minimum Inhibitory Concentration MIC); greater than 100 µg/mL in [12] (Saccharomyces cerevisiae, ATCC9763, read-out: Minimum Inhibitory Concentration MIC); 25 µg/mL (≈ 60.3 µM) in data set [14] (Staphylococcus epidermidis, ATCC12228, read-out: Minimum Inhibitory Concentration MIC). Moreover, the MIC in [15] (Bacillus subtilis, ATCC6633, read-out: Minimum Inhibitory Concentration MIC) was greater than 100 µg/mL. Moreover, the “titer relative to dipyridamol” value in data set [1] was “about 3 times”. Moreover, the results for the “Blood Pressure Duration” value in data set [1] (dose 10 μg/kg), in data set [1] (dose 30 μg/kg) and in data set [1] (dose 100 μg/kg) were 0 min, 10 min and 15 min, respectively. The results for the “Blood Pressure Reduction” value in [1] (dose 10 μg/kg), in [1] (dose 30 μg/kg) and in data set [1] (dose 100 μg/kg) were 0%, 2.9% and 8.5%, respectively. Also, the entries for the “Coronary Blood Flow Duration” value in [1] (dose 10 μg/kg), in data set [1] (dose 30 μg/kg) and in data set [1] (dose 100 μg/kg) were 5 min, 10 min and 15 min, respectively. Besides, the “Coronary Blood Flow Increase” value in [1] (dose 10 μg/kg) was 30.0%; in data set [1] (dose 30 μg/kg) it was 60.0%; in [1] (dose 100 μg/kg) it was 130.0%. The “Heart Rate Reduction” value in data set [1] (dose 10 μg/kg) was 0%; in [1] (dose 30 μg/kg) it was 0%; in [1] (dose 100 μg/kg), 10.1%. For the same compound, in data set [13], the “Solubility in organic solvents” value is “Soluble”. For the same compound, the Solubility in water entry in [13] is on record as “sparingly soluble”.
